Data on 38 compounds can be found in ChEMBL document CHEMBL1795223, “A reverse method for diversity introduction of benzimidazole to synthesize H(+)/K(+)-ATP enzyme inhibitors” (Bioorg Med Chem Lett, 2011).

By inhibition is commonly meant the share of the control response that was lost under treatment. The term IC50 denotes the midpoint of a concentration-inhibition curve.

The species entered for the first test is Sus scrofa. The test is described as follows: Inhibition of H+/K+ATPase in pig gastric microsome assessed as liberation of inorganic phosphate using ATP at 10 uM relative to control. The format is microsomes. Particulars: Stomach.
For the compound `COc1c(C)cnc(C[S+]([O-])c2nc3cc(Oc4ccc5c(c4)OCO5)c(NC(C)=O)cc3[nH]2)c1C` (stereo unspecified), the inhibition worked out at 35%.
Turning to `COc1ccnc(C[S+]([O-])c2nc3cc(Oc4ccccc4)c(NC(C)=O)cc3[nH]2)c1OC` (stereo unspecified), the inhibition amounted to 6%.
In the case of `CCCN(CCC)c1cc2nc([S+]([O-])Cc3ncc(C)c(OC)c3C)[nH]c2cc1NC(=O)C1CC1` (stereo unspecified), the inhibition was found to be 33%.
With `COc1ccnc(C[S+]([O-])c2nc3cc(Oc4ccccc4)c(NC(=O)C4CC4)cc3[nH]2)c1OC` (stereo unspecified), the inhibition was found to be 2%.
`COc1ccnc(C[S+]([O-])c2nc3cc(N4CCCCC4)c(NC(=O)C(F)(F)F)cc3[nH]2)c1OC` (stereo unspecified): the inhibition is 38%.
Consider `CCOC(=O)N1CCN(c2cc3nc([S+]([O-])Cc4nccc(OC)c4OC)[nH]c3cc2NC(C)=O)CC1` (stereo unspecified), for which the inhibition came out at 17%.
As for `COc1ccnc(C[S+]([O-])c2nc3cc(Oc4ccc5c(c4)OCO5)c(NC(=O)C4CC4)cc3[nH]2)c1OC` (stereo unspecified), the inhibition was found to be 0%.
Same read-out and setting: the result for `COc1c(C)cnc(C[S+]([O-])c2nc3cc(N4CCCCC4)c(NC(C)=O)cc3[nH]2)c1C` (stereo unspecified) reads 10%; that for `COc1cc2nc([S+]([O-])Cc3ncc(C)c(OC)c3C)[nH]c2cc1NC(=O)C1CC1` (stereo unspecified), 16%; that for `COc1c(C)cnc(C[S+]([O-])c2nc3cc(N4CCCCC4)c(NC(=O)C(F)(F)F)cc3[nH]2)c1C` (stereo unspecified), 41%.
In the case of `COc1c(C)cnc(C[S+]([O-])c2nc3cc(Oc4ccccc4)c(NC(=O)C4CC4)cc3[nH]2)c1C` (stereo unspecified), the inhibition turned out to be 18%.
Same read-out and setting: in the case of `CCCN(CCC)c1cc2nc([S+]([O-])Cc3nccc(OC)c3OC)[nH]c2cc1NC(=O)C(F)(F)F` (stereo unspecified) it was 24%.
Turning to `COCCCOc1ccnc(C[S+]([O-])c2nc3ccccc3[nH]2)c1C` (stereo unspecified) [RABEPRAZOLE SODIUM], the inhibition turned out to be 90%.
As for `COc1c(C)cnc(C[S+]([O-])c2nc3cc(Oc4ccccc4)c(NC(C)=O)cc3[nH]2)c1C` (stereo unspecified), the inhibition came to 37%.
Consider `COc1ccnc(C[S+]([O-])c2nc3cc(Oc4ccccc4)c(NC(=O)c4ccco4)cc3[nH]2)c1OC` (stereo unspecified), for which the inhibition amounted to 9%.
`COc1c(C)cnc(C[S+]([O-])c2nc3cc(Oc4ccc5c(c4)OCO5)c(NC(=O)C4CC4)cc3[nH]2)c1C` (stereo unspecified): the inhibition was 10%.
Consider `CCOC(=O)N1CCN(c2cc3nc([S+]([O-])Cc4nccc(OC)c4OC)[nH]c3cc2NC(=O)C2CC2)CC1` (stereo unspecified), for which the inhibition stood at 4%.
In the case of `COc1cc2nc([S+]([O-])Cc3nccc(OC)c3OC)[nH]c2cc1NC(C)=O` (stereo unspecified), the inhibition was determined as 4%.
As to `COc1cc2nc([S+]([O-])Cc3nccc(OC)c3OC)[nH]c2cc1NC(=O)c1ccco1` (stereo unspecified), the inhibition was 13%.
As to `COc1cc2nc([S+]([O-])Cc3ncc(C)c(OC)c3C)[nH]c2cc1NC(C)=O` (stereo unspecified), the inhibition came to 4%.
Regarding `CCCN(CCC)c1cc2nc([S+]([O-])Cc3ncc(C)c(OC)c3C)[nH]c2cc1NC(C)=O` (stereo unspecified), the inhibition was 62%.
`COc1ccnc(C[S+]([O-])c2nc3cc(N4CCCCC4)c(NC(=O)C4CC4)cc3[nH]2)c1OC` (stereo unspecified): the inhibition amounted to 32%.
As for `COc1c(C)cnc(C[S+]([O-])c2nc3cc(N4CCCCC4)c(NC(=O)COCc4ccccc4)cc3[nH]2)c1C` (stereo unspecified), the inhibition is 58%.
Consider `COc1ccnc(C[S+]([O-])c2nc3cc(Oc4ccc5c(c4)OCO5)c(NC(C)=O)cc3[nH]2)c1OC` (stereo unspecified), for which the inhibition was 1%.
For `CCCN(CCC)c1cc2nc([S+]([O-])Cc3nccc(OC)c3OC)[nH]c2cc1NC(=O)c1ccco1` (stereo unspecified), the inhibition turned out to be 0%.
With `CCOC(=O)N1CCN(c2cc3nc([S+]([O-])Cc4ncc(C)c(OC)c4C)[nH]c3cc2NC(=O)C2CC2)CC1` (stereo unspecified), the inhibition is 21%.
For the compound `COc1cc2nc([S+]([O-])Cc3nccc(OC)c3OC)[nH]c2cc1NC(=O)C1CC1` (stereo unspecified), the inhibition worked out at 16%.
Consider `CCCN(CCC)c1cc2nc([S+]([O-])Cc3nccc(OC)c3OC)[nH]c2cc1NC(C)=O` (stereo unspecified), for which the inhibition amounted to 28%.
In the case of `CCCN(CCC)c1cc2nc([S+]([O-])Cc3ncc(C)c(OC)c3C)[nH]c2cc1NC(=O)C(F)(F)F` (stereo unspecified), the inhibition came out at 3%.
In the case of `CCCN(CCC)c1cc2nc([S+]([O-])Cc3ncc(C)c(OC)c3C)[nH]c2cc1NC(=O)c1ccco1` (stereo unspecified), the inhibition was found to be 39%.
For `COc1c(C)cnc(C[S+]([O-])c2nc3cc(N4CCCCC4)c(NC(=O)C4CC4)cc3[nH]2)c1C` (stereo unspecified), the inhibition was determined as 34%.
Still for that read-out and setting: the result for `CCCN(CCC)c1cc2nc([S+]([O-])Cc3nccc(OC)c3OC)[nH]c2cc1NC(=O)C1CC1` (stereo unspecified) reads 11%.
`COc1ccc2[nH]c([S+]([O-])Cc3ncc(C)c(OC)c3C)nc2c1` (stereo unspecified) [OMEPRAZOLE]: the inhibition was determined as 39%.
As for `CCOC(=O)N1CCN(c2cc3nc([S+]([O-])Cc4ncc(C)c(OC)c4C)[nH]c3cc2NC(C)=O)CC1` (stereo unspecified), the inhibition came to 15%.
As for `COc1cc2nc([S+]([O-])Cc3ncc(C)c(OC)c3C)[nH]c2cc1NC(=O)c1ccco1` (stereo unspecified), the inhibition amounted to 13%.
Same read-out and setting: in the case of `COc1ccnc(C[S+]([O-])c2nc3cc(N4CCCCC4)c(NC(=O)COCc4ccccc4)cc3[nH]2)c1OC` (stereo unspecified) it was 32%; in that of `COc1c(C)cnc(C[S+]([O-])c2nc3cc(Oc4ccccc4)c(NC(=O)c4ccco4)cc3[nH]2)c1C` (stereo unspecified), 48%.
On to `COc1ccnc(C[S+]([O-])c2nc3cc(N4CCCCC4)c(NC(C)=O)cc3[nH]2)c1OC` (stereo unspecified), for which the inhibition amounted to 8%.

Target in the next test: not listed separately
The test is described as follows: Inhibition of H+/K+ATPase in pig gastric microsome assessed as liberation of inorganic phosphate using ATP. The class given is microsomes, Sus scrofa, Stomach.
Details: not given
As to `COCCCOc1ccnc(C[S+]([O-])c2nc3ccccc3[nH]2)c1C` (stereo unspecified) [RABEPRAZOLE SODIUM], the IC50 was 1.5 µM.
Still for that read-out and setting: the result for `CCCN(CCC)c1cc2nc([S+]([O-])Cc3ncc(C)c(OC)c3C)[nH]c2cc1NC(C)=O` (stereo unspecified) reads 16 µM.
As to `COc1ccc2[nH]c([S+]([O-])Cc3ncc(C)c(OC)c3C)nc2c1` (stereo unspecified) [OMEPRAZOLE], the 50% inhibitory concentration (IC50) came to 18 µM.
